According to US20050009060A1, “Multiplexed multitarget screening method” (priority 2003, published 2005):

Target: 5HT2A receptor (Homo sapiens, UniProt P28223)
Experiment: Ca2+i mobilization by autosampling flow cytometry, single cell threshold analysis, Indo-1-loaded cells
Assay type: cell-based
Details: 1 uM serotonin; percent of cells with Ca2+i at least 2 SD above mean of buffer control
From the text: Left panel: distribution of Ca^2+i levels measured by intensity ratio, and determination of threshold level as shown by arrow.
A rotated histogram plot of such a response, and of the basal population, is shown in the left panel of FIG. 22, where the Ca^2+i level is shown on the x-axis and the number of cells attaining each Ca^2+i level is on the y-axis. […] The threshold is set by calculating the mean of the Ca^2+i level in the buffer control sample and calculating one (1) or more standard deviations above the mean. The choice to use one or more standard deviations is based on minimizing the error between buffer control samples and fully activated positive control samples. […] A threshold level at two standard deviations above the mean Ca^2+i level is shown by the arrow. Because the single cell flow cytometry as provided herein can analyze samples rapidly, about 100 to 200 cells, or more, can be analyzed in a short period. […] Data analysis is implemented in an automated software algorithm that automatically calculates Chi Square values along with the response frequency for each sample.

5HT2A receptor, sequence (P28223 whole entry): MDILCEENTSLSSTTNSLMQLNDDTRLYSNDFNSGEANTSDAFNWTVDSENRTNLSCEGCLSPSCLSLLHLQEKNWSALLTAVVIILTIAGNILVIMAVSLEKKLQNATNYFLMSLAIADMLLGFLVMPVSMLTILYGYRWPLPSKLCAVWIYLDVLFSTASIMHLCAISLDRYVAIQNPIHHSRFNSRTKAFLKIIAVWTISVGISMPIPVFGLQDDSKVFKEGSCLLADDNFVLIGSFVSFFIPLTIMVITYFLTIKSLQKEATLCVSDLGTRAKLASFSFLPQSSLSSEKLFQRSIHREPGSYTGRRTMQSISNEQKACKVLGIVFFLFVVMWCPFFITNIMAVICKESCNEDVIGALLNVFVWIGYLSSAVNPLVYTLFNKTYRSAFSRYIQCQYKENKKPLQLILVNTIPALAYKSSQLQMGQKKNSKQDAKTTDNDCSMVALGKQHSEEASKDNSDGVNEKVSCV

signal to baseline ratio (stimulated to unstimulated response frequency): over 50
Structure (SMILES): NCCc1c[nH]c2ccc(O)cc12 [serotonin]
